From patent US6737383B1, “Herbicidal oxadiazolidines” (priority 1999, dated 2004)

Legend:
giant foxtail = experiment: Test B pre/postemergence giant foxtail; format: in vivo, Setaria faberii; conditions: for Giant foxtail plant response rating: scale of 0 to 10 where 0 is no effect and 10 is complete control
Summary of the method: (§1)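 Response is a visual 0-to-10 score relative to untreated plants, where 0 means no effect and 10 means complete control, taken twelve to sixteen days after application. Treatments went onto soil at planting and onto foliage of 1- to 4-leaf plants, using a surfactant-containing non-phytotoxic solvent.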

surinam grass = experiment: Test B pre/postemergence surinam grass; format: in vivo, Brachiaria decumbens; conditions: for B. signalgrass plant response rating: scale of 0 to 10 where 0 is no effect and 10 is complete control
Summary of the method: as §1

pigweed = experiment: Test B pre/postemergence pigweed; format: in vivo, Amaranthus retroflexus; conditions: for Redroot pigweed plant response rating: scale of 0 to 10 where 0 is no effect and 10 is complete control
Summary of the method: as §1

wild oat = experiment: Test B pre/postemergence wild oat; format: in vivo, Avena fatua; conditions: for Wild oats plant response rating: scale of 0 to 10 where 0 is no effect and 10 is complete control
Summary of the method: as §1

smallflower flatsedge = experiment: Test B flood test smallflower flatsedge; format: in vivo, Cyperus difformis
Summary of the method: (§2)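 Read-out is a visual response score from 0 (no effect) to 10 (complete control), assigned by comparison with untreated controls. Treatment was applied at the 2-leaf stage, and plants stayed in the greenhouse for twelve to sixteen days before scoring.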

cocklebur = experiment: Test B pre/postemergence cocklebur; format: in vivo, Xanthium strumarium; conditions: for Cocklebur plant response rating: scale of 0 to 10 where 0 is no effect and 10 is complete control
Summary of the method: as §1

soybean = experiment: Test B pre/postemergence soybean; format: in vivo, Glycine max; conditions: for Soybean plant response rating: scale of 0 to 10 where 0 is no effect and 10 is complete control
Summary of the method: as §1

bamyardgrass = experiment: Test B flood test barnyardgrass; format: in vivo, Echinochloa crus-galli
Summary of the method: as §2

corn = experiment: Test B pre/postemergence corn; format: in vivo, Zea mays; conditions: for Corn plant response rating: scale of 0 to 10 where 0 is no effect and 10 is complete control
Summary of the method: as §1

blackgrass = experiment: Test B pre/postemergence blackgrass; format: in vivo, Alopecurus myosuroides; conditions: for Blackgrass plant response rating: scale of 0 to 10 where 0 is no effect and 10 is complete control
Summary of the method: as §1

wheat = experiment: Test B pre/postemergence wheat; format: in vivo, Triticum aestivum; conditions: for Wheat plant response rating: scale of 0 to 10 where 0 is no effect and 10 is complete control
Summary of the method: as §1

rice = experiment: Test B flood test rice; format: in vivo, Oryza sativa
Summary of the method: as §2

crabgrass = experiment: Test B pre/postemergence crabgrass; format: in vivo, Digitaria sanguinalis; conditions: for Crabgrass plant response rating: scale of 0 to 10 where 0 is no effect and 10 is complete control
Summary of the method: as §1

velvetleaf = experiment: Test B pre/postemergence velvetleaf; format: in vivo, Abutilon theophrasti; conditions: for Velvetleaf plant response rating: scale of 0 to 10 where 0 is no effect and 10 is complete control
Summary of the method: as §1

morningglory = experiment: Test B pre/postemergence morningglory; format: in vivo, Ipomoea hederacea; conditions: for Morningglory plant response rating: scale of 0 to 10 where 0 is no effect and 10 is complete control
Summary of the method: as §1

[1] = Postemergence, Rate 125 g/ha, scale 0 to 10, 0 is no effect, 10 is complete control
[2] = Postemergence, Rate 250 g/ha, scale 0 to 10, 0 is no effect, 10 is complete control
[3] = Preemergence, Rate 62 g/ha, scale 0 to 10 (0 no effect, 10 complete control)
[4] = Rate 500 g/ha, Postemergence, scale 0 to 10, 0 no effect, 10 complete control
[5] = Rate 62 g/ha, flood test species, Pre-emergence, visual evaluation after twelve to sixteen days
[6] = Rate 125 g/ha, under heading Pre-emergence, flood test species, visual evaluation after twelve to sixteen days
[7] = Rate 250 g/ha, Pre-emergence, flood-test species, scale 0 to 10, 0 is no effect, 10 is complete control
[8] = Rate 500 g/ha, Pre-emergence, flood test species, scale 0 to 10 (0 no effect, 10 complete control)

CC(C)N(C(=O)n1oc(=O)n(CCl)c1=O)c1ccc(F)cc1 [Compound 376]
0: Plant response rating, Giant foxtail (giant foxtail; [1]) | Plant response rating, Giant foxtail (giant foxtail; [2]) | Plant response rating, Giant foxtail (giant foxtail; [3]) | Giant foxtail plant response rating (0 to 10 scale) (giant foxtail; Preemergence, Rate 125 g/ha) | Giant foxtail plant response rating (giant foxtail; Preemergence, Rate 250 g/ha) | Giant foxtail plant response rating (giant foxtail; Preemergence, Rate 500 g/ha) | Giant foxtail plant response rating (giant foxtail; Rate 62 g/ha, Postemergence) | Plant response rating, Giant foxtail (giant foxtail; [4]) | Plant response rating, B. signalgrass (surinam grass; [1]) | Plant response rating, B. signalgrass (surinam grass; [2]) | Plant response rating, B. signalgrass (surinam grass; [3]) | B. signalgrass plant response rating (0 to 10 scale, 0 is no effect, 10 is complete control) (surinam grass; Preemergence, Rate 125 g/ha) | B. signalgrass plant response rating (surinam grass; Preemergence, Rate 250 g/ha) | B. signalgrass plant response rating (surinam grass; Preemergence, Rate 500 g/ha) | B. signalgrass plant response rating (surinam grass; Rate 62 g/ha, Postemergence) | Plant response rating, B. signalgrass (surinam grass; [4]) | Plant response rating, Redroot pigweed (pigweed; [1]) | Plant response rating, Redroot pigweed (pigweed; [2]) | Plant response rating, Redroot pigweed (pigweed; [3]) | Redroot pigweed plant response rating (0 to 10 scale) (pigweed; Preemergence, Rate 125 g/ha) | Redroot pigweed plant response rating (pigweed; Preemergence, Rate 250 g/ha) | Redroot pigweed plant response rating (pigweed; Preemergence, Rate 500 g/ha) | Redroot pigweed plant response rating (pigweed; Rate 62 g/ha, Postemergence) | Plant response rating, Redroot pigweed (pigweed; [4]) | Plant response rating, Wild oats (wild oat; [1]) | Plant response rating, Wild oats (wild oat; [2]) | Plant response rating, Wild oats (wild oat; [3]) | Wild oats plant response rating (0 to 10 scale) (wild oat; Preemergence, Rate 125 g/ha) | Wild oats plant response rating (wild oat; Preemergence, Rate 250 g/ha) | Wild oats plant response rating (wild oat; Preemergence, Rate 500 g/ha) | Wild oats plant response rating (wild oat; Rate 62 g/ha, Postemergence) | Plant response rating, Wild oats (wild oat; [4]) | Plant response rating, S. Flatsedge (0 to 10 scale, 0 is no effect, 10 is complete control) (smallflower flatsedge; [5]) | S. Flatsedge plant response rating (0 to 10 scale, 0 is no effect, 10 is complete control) (smallflower flatsedge; [6]) | S. Flatsedge plant response rating (smallflower flatsedge; [7]) | S. Flatsedge plant response rating (smallflower flatsedge; [8]) | Plant response rating, Cocklebur (cocklebur; [1]) | Plant response rating, Cocklebur (cocklebur; [2]) | Plant response rating, Cocklebur (cocklebur; [3]) | Cocklebur plant response rating (0 to 10 scale) (cocklebur; Preemergence, Rate 125 g/ha) | Cocklebur plant response rating (cocklebur; Preemergence, Rate 250 g/ha) | Cocklebur plant response rating (cocklebur; Preemergence, Rate 500 g/ha) | Cocklebur plant response rating (cocklebur; Rate 62 g/ha, Postemergence) | Plant response rating, Cocklebur (cocklebur; [4]) | Plant response rating, Soybean (soybean; [1]) | Plant response rating, Soybean (soybean; [2]) | Plant response rating, Soybean (soybean; [3]) | Soybean plant response rating (0 to 10 scale) (soybean; Preemergence, Rate 125 g/ha) | Soybean plant response rating (soybean; Preemergence, Rate 250 g/ha) | Soybean plant response rating (soybean; Preemergence, Rate 500 g/ha) | Soybean plant response rating (soybean; Rate 62 g/ha, Postemergence) | Plant response rating, Soybean (soybean; [4]) | Plant response rating, Barnyardgrass (0 to 10 scale, 0 is no effect, 10 is complete control) (bamyardgrass; [5]) | Barnyardgrass plant response rating (0 to 10 scale, 0 is no effect, 10 is complete control) (bamyardgrass; [6]) | Barnyardgrass plant response rating (bamyardgrass; [7]) | Barnyardgrass plant response rating (bamyardgrass; [8]) | Plant response rating, Corn (corn; [1]) | Plant response rating, Corn (corn; [2]) | Plant response rating, Corn (corn; [3]) | Corn plant response rating (0 to 10 scale) (corn; Preemergence, Rate 125 g/ha) | Corn plant response rating (corn; Preemergence, Rate 250 g/ha) | Corn plant response rating (corn; Preemergence, Rate 500 g/ha) | Corn plant response rating (corn; Rate 62 g/ha, Postemergence) | Plant response rating, Corn (corn; [4]) | Plant response rating, Blackgrass (blackgrass; [1]) | Plant response rating, Blackgrass (blackgrass; [2]) | Plant response rating, Blackgrass (blackgrass; [3]) | Blackgrass plant response rating (0 to 10 scale) (blackgrass; Preemergence, Rate 125 g/ha) | Blackgrass plant response rating (blackgrass; Preemergence, Rate 250 g/ha) | Blackgrass plant response rating (blackgrass; Preemergence, Rate 500 g/ha) | Blackgrass plant response rating (blackgrass; Rate 62 g/ha, Postemergence) | Plant response rating, Blackgrass (blackgrass; [4]) | Plant response rating, Wheat (wheat; [1]) | Plant response rating, Wheat (wheat; [2]) | Plant response rating, Wheat (wheat; [3]) | Wheat plant response rating (0 to 10 scale) (wheat; Preemergence, Rate 125 g/ha) | Wheat plant response rating (wheat; Preemergence, Rate 250 g/ha) | Wheat plant response rating (wheat; Preemergence, Rate 500 g/ha) | Wheat plant response rating (wheat; Rate 62 g/ha, Postemergence) | Plant response rating, Wheat (wheat; [4]) | Plant response rating, Rice (0 to 10 scale, 0 is no effect, 10 is complete control) (rice; [5]) | Rice plant response rating (0 to 10 scale, 0 is no effect, 10 is complete control) (rice; [6]) | Rice plant response rating (rice; [7]) | Rice plant response rating (rice; [8]) | Plant response rating, Crabgrass (crabgrass; [1]) | Plant response rating, Crabgrass (crabgrass; [2]) | Plant response rating, Crabgrass (crabgrass; [3]) | Crabgrass plant response rating (0 to 10 scale) (crabgrass; Preemergence, Rate 125 g/ha) | Crabgrass plant response rating (crabgrass; Preemergence, Rate 250 g/ha) | Crabgrass plant response rating (crabgrass; Preemergence, Rate 500 g/ha) | Crabgrass plant response rating (crabgrass; Rate 62 g/ha, Postemergence) | Plant response rating, Crabgrass (crabgrass; [4]) | Plant response rating, Velvetleaf (velvetleaf; [1]) | Plant response rating, Velvetleaf (velvetleaf; [2]) | Plant response rating, Velvetleaf (velvetleaf; [3]) | Velvetleaf plant response rating (0 to 10 scale) (velvetleaf; Preemergence, Rate 125 g/ha) | Velvetleaf plant response rating (velvetleaf; Preemergence, Rate 250 g/ha) | Velvetleaf plant response rating (velvetleaf; Preemergence, Rate 500 g/ha) | Velvetleaf plant response rating (velvetleaf; Rate 62 g/ha, Postemergence) | Plant response rating, Velvetleaf (velvetleaf; [4]) | Plant response rating, Morningglory (morningglory; [1]) | Plant response rating, Morningglory (morningglory; [2]) | Plant response rating, Morningglory (morningglory; [3]) | Morningglory plant response rating (0 to 10 scale) (morningglory; Preemergence, Rate 125 g/ha) | Morningglory plant response rating (morningglory; Preemergence, Rate 250 g/ha) | Morningglory plant response rating (morningglory; Preemergence, Rate 500 g/ha) | Morningglory plant response rating (morningglory; Rate 62 g/ha, Postemergence) | Plant response rating, Morningglory (morningglory; [4])
